Data reported in patent publication US10533018B2, “Antimicrobial prochelators to target drug-resistant bacteria and methods of making and using the same” (Duke University, priority 2015, dated 2020).

Tests used:
[1] = tested on: several strains; conditions: concentrations below 1 mM
Description: [39, 40] […] To control for the impact of copper alone, the cultures of 5 bacterial strains were subjected to a serial dilution of CuCl2. […] [41] To control for the impact of limited Cu, several strains were also challenged with a serial dilution of BCS.

[2] = tested on: E. coli; format: cell-based; conditions: at 52 μM DB4-51
Description: Further evidence for the influence of bioavailable copper on the IC50 of DB4-51 was obtained by using a checkerboard assay. […] Serial dilutions of DB4-51 in LB were arrayed against dilutions of chelator (BCS and EDTA). The antagonism exists between our prochelator, DB4-51, and the strong, extracellular chelators BCS and EDTA. […] However, at lower concentrations, EDTA works antagonistically with DB4-51 by restoring bacterial growth. This trend further underscores the influence that copper and potentially other metals have on the growth inhibitory activity of DB4-51.

Cc1cc(-c2ccc(S(=O)(=O)O)cc2)c2ccc3c(-c4ccc(S(=O)(=O)O)cc4)cc(C)nc3c2n1 [BCS, bathocuproine disulfonate]
effect on bacterial growth [1]: did not inhibit bacterial growth
concentration that restored E. coli growth [2]: ≥ 125 µM
